T1: Asp-ase granule protease (Rattus norvegicus, UniProt P18291)
T1 construct: endogenous in cells; host or cells: RNK-16
T1 sequence (P18291 21-248): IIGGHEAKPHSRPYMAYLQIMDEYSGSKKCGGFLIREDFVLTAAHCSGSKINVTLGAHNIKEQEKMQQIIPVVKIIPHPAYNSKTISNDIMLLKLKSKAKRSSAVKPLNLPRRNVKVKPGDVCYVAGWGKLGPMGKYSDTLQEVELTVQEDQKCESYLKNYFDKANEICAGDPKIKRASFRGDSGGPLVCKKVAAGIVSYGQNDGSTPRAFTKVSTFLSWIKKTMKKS

T2: human leukocyte elastase (HLE) (Homo sapiens, UniProt P08246)
T2 construct: purchased Athens Research and Technology, Inc., Athens, Ga
T2 sequence (P08246 30-267): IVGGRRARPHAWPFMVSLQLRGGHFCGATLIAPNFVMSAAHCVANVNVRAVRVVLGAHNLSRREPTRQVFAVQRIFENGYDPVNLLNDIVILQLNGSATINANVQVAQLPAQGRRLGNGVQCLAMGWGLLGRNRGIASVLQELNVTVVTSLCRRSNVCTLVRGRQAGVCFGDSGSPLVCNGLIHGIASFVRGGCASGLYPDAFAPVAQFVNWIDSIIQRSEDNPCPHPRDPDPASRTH

B1: soybean trypsin inhibitor: reversible serine protease inhibitor, macromolecular inhibitor (protein, UniProt P01070 25-205, looked up)
Trypsin inhibitor A: DFVLDNEGNPLENGGTYYILSDITAFGGIRAAPTGNERCPLTVVQSRNELDKGIGTIISSPYRIRFIAEGHPLSLKFDSFAVIMLCVGIPTEWSVVEDLPEGPAVKIGENKDAMDGWFRLERVSDDEFNNYKLVFCPQQAEDDKCGDIGISIDHDDGTRRLVVSKNKPLVVQFQKLDKESL

Legend:
RNK-16 cells = experiment: Cell labeling and confocal imaging of NK line RNK-16; format: cell-based; details: live RNK-16 cells, 0.1 mM inhibitor, 30 minutes, 37° C., confocal microscopy
Description: Cell Labeling and Imaging. Cells of the NK line RNK-16 were labeled as live cells, washed, treated with methanol as a fixative and permeabilizing agent, and then examined by confocal microscopy. The cells were treated at 1×10^7 cells/mL in RPMI 1640 culture media (Sigma Chemical Co., St. Louis, Mo.) containing 10 mM Hepes with 0.1 mM FTC-Aca-Ala-Ala-Met^P (OPh)2 for 30 minutes at 37° C. Control cells were treated with the same volume of DMSO required to deliver the inhibitor (typically 1% final concentration). Cells were then washed several times with phosphate buffered saline (PBS) to remove excess inhibitor. They were suspended overnight in cold 80% methanol to permeabilize the membrane. The cells were washed free of MeOH into PBS and fixed onto poly-L-lysine (Sigma) coated microscope slides using 3% paraformaldehyde. Fixed slides were washed in PBS, coated with Vectashield (Vector Laboratories, Inc., Burlingame, Ca.) to prevent fluorescence fading and topped with a coverslip. Fluorescent laser scanning confocal microscopy was done with a Bio-Rad MRC 600 confocal system utilizing a Zeiss Axiophot microscope and equipped with a mixed-gas argon/krypton ion laser using 488 nm excitation for fluorescein.

chymotrypsin = chymotrypsin (Bos taurus, UniProt P00766); experiment: Inactivation of chymotrypsin, incubation method; format: biochemical, bovine; details: for kobsd /(I) Chymotrypsin: 0.1 M Hepes, 0.5 M NaCl, pH 7.5, 5-10% Me2SO, 25° C., NI = no inhibition after 40 min of incubation
Description: (§1) Inactivation rates of serine proteases by fluorescent peptidylphosphonates were measured by the incubation method. In each case the inactivation experiment was preceded by an enzyme assay in which the hydrolysis of peptide p-nitroanilide substrates, catalyzed by chymotrypsin, PPE, HLE, and trypsin was measured in 0.1M Hepes and 0.5M NaCl (0.01M CaCl2 for trypsin), pH 7.5 buffer containing 5-10% Me2 SO at 25° C. Stock solutions of substrates were prepared in Me2 SO (20 mM) and stored at -20° C. Final substrate concentrations were 0.24 mM. Chymotrypsin activity was assayed with Suc-Val-Pro-Phe-NA. PPE was assayed with Suc-Ala-Ala-Ala-NA. HLE was assayed with MeO-Suc-Ala-Ala-Pro-Val-NA and trypsin was assayed with Z-Arg-NA. The initial rates of hydrolysis were measured at 410 nm (ε410 =8800 M^-1 cm^-1) on a Beckman 35 spectrophotometer after 25-50 μL of an enzyme stock solution was added to a cuvette containing 2.0 mL of buffer and 25 μL of substrate.
(§2) Each inhibition reaction was initiated by adding a 50 μL aliquot of inhibitor (100-5000 μM in Me2 SO) to 0.5 mL of a 0.1M Hepes, 0.5M NaCl (0.01M CaCl2 for trypsin), pH 7.5 buffer containing 50 μL of a stock enzyme solution at 25° C. The enzyme stock solutions were 20 μM chymotrypsin, trypsin, and PPE in 1 mM HCl (pH 3), and 0.4-4 μM HLE in 0.25M NaAc and 1M NaCl at pH 5.5. All the enzyme stock solutions were stored at -20° C. prior to use. Aliquots (25 μL) were withdrawn at various intervals and the residual enzymatic activity was measured spectrophotometrically as described above. Pseudo first-order inactivation rate constants (kobsd) were obtained from plots of ln vt /vo vs time and had correlation coefficients greater than 0.98. Each kobsd was calculated from 5-10 activity determinations which extended to 2-3 half lives. Control experiments were carried out in the same way as described above except Me2 SO was added in place of the inhibitor solution in Me2 SO. […] These initial rates were used as vo in the calculation of the inhibition rate constants.

Asp-ase granule protease = target: T1, Asp-ase granule protease; experiment: Inactivation of RNK-16 granule Asp-ase activity; format: biochemical; details: RNK-16 granule protease activity
[1] = target: T2, human leukocyte elastase (HLE); experiment: Inactivation of HLE, incubation method; format: biochemical; details: 0.1 M Hepes, 0.5 M NaCl, pH 7.5, 5-10% Me2SO, 25° C.; NI = no inhibition after 40 min of incubation
Description: as §1, §2

[2] = tested on: tryptase granule protease; experiment: Inactivation of RNK-16 granule tryptase activity; format: biochemical; details: RNK-16 granule protease activity
RNK-16 chymase [3] = experiment: Inactivation of RNK-16 granule chymase activity; format: biochemical; details: granule protease activity
[4] = target: T3, porcine pancreatic elastase (PPE) (Sus scrofa, UniProt P00772); experiment: Inactivation of PPE, incubation method; format: biochemical; details: 0.1 M Hepes, 0.5 M NaCl, pH 7.5, 5-10% Me2SO, 25° C.; NI = no inhibition after 40 min of incubation
T3 construct: purchased United States Biochemical Corp., Cleveland, Ohio
T3 sequence (P00772 27-266): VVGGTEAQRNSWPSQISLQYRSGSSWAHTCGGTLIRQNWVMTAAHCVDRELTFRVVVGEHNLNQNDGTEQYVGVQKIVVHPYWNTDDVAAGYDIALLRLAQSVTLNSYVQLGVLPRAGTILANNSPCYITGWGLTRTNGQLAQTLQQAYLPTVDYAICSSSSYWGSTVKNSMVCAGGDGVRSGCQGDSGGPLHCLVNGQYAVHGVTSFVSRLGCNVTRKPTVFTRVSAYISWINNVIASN
Description: as §1, §2

[5] = tested on: tryptase granule protease; details: previous approach, comparison; cited from earlier work
RNK-16 chymase [6] = details: previous approach, comparison; cited from earlier work

Molecule	kobsd /(I) Chymotrypsin (chymotrypsin)	kobsd /(I) HLE [1]	kobsd /(I) PPE [4]	also measured
CSCCC(NC(=O)[C@H](C)NC(=O)[C@H](C)NC(=O)CCCCCNC(=S)Nc1ccc2c(c1)C(=O)OC21c2ccc(O)cc2Oc2cc(O)ccc21)P(=O)(Oc1ccccc1)Oc1ccccc1 (stereo partly drawn) [Compound 1, Diphenyl 1-(6-(5-Fluoresceinylthiocarbamoylamino)caproylalanylalanylamino)-3-(methylthio)propanephosphonate]	190 M⁻¹ s⁻¹	22 M⁻¹ s⁻¹	13 M⁻¹ s⁻¹	fluorescent labeling of cells (RNK-16 cells): reacted with distinct, granule-like regions; inactivation of Asp-ase granule protease activity (Asp-ase granule protease): little; inactivation of tryptase granule protease activity [2]: little; inactivation of RNK-16 chymase (RNK-16 chymase [3]): inactivated
CC(NC(=O)[C@H](C)NC(=O)[C@H](C)NC(=O)CCCCCNC(=S)Nc1ccc2c(c1)C(=O)OC21c2ccc(O)cc2Oc2cc(O)ccc21)P(=O)(Oc1ccccc1)Oc1ccccc1 (stereo partly drawn) [Compound 2, Diphenyl 1-(6-(5-Fluoresceinylthiocarbamoylamino)caproylalanylalanylamino) ethanephosphonate]			22 M⁻¹ s⁻¹	
CC(C)C[C@H](NC(=O)[C@H](Cc1ccccc1)NC(=O)CCCCCNC(=S)Nc1ccc2c(c1)C(=O)OC21c2ccc(O)cc2Oc2cc(O)ccc21)C(=O)NC(Cc1ccccc1)P(=O)(Oc1ccccc1)Oc1ccccc1 (stereo partly drawn) [Compound 3, Diphenyl 1-(6-(5-Fluoresceinylthiocarbamoylamino)caproylphenylalanylleucylamino)-2-phenylethanephosphonate]			16 M⁻¹ s⁻¹	times faster inhibition of chymotrypsin than of HLE (chymotrypsin; ratio of kobsd/(I) chymotrypsin to HLE): 600
CSCCC(NC(=O)[C@H](C)NC(=O)[C@H](C)NC(=O)OC(C)(C)C)P(=O)(Oc1ccccc1)Oc1ccccc1 (stereo partly drawn) [Compound 5, Boc-Ala-Ala-Met^P (OPh)2, reference compound]	3 M⁻¹ s⁻¹	2 M⁻¹ s⁻¹	3 M⁻¹ s⁻¹	
CC(NC(=O)[C@H](C)NC(=O)[C@H](C)NC(=O)OCc1ccccc1)P(=O)(Oc1ccccc1)Oc1ccccc1 (stereo partly drawn) [Compound 6, Z-Ala-Ala-Ala^P (OPh)2, reference compound]			30 M⁻¹ s⁻¹	
CC(C)C[C@H](NC(=O)[C@H](Cc1ccccc1)NC(=O)OCc1ccccc1)C(=O)NC(Cc1ccccc1)P(=O)(Oc1ccccc1)Oc1ccccc1 (stereo partly drawn) [Compound 7, Z-Phe-Leu-Phe^P (OPh)2, reference compound]	110 M⁻¹ s⁻¹	27 M⁻¹ s⁻¹		
Diphenyl 1-(6-(4(or 2)(9-(2,3,6,7,12,13,16,17-octahydro-1H,5H,11H,15H-xantheno(2,3,4-ij:5,6,7- i'j')diquinolizinyl-18-ium))3(or 5)sulfo-1-phenylsulfonamido)caproylphenylalanylleucylamino)-2-phenylethanephosphonate, Hydroxide, Inner Salt [Compound 4]	15 M⁻¹ s⁻¹	96 M⁻¹ s⁻¹	11 M⁻¹ s⁻¹	
B1				inactivation of tryptases of cytotoxic lymphocytes [5]: inactivated; inactivation of chymases of cytotoxic lymphocytes (RNK-16 chymase [6]): inactivated
